Laboratory results published in ChEMBL document CHEMBL4002612, “Study of antileishmanial activity of 2-aminobenzoyl amino acid hydrazides and their quinazoline derivatives” (Bioorg Med Chem Lett, 2017).

What was measured:
[1] = test system: Mus musculus; assay: Acute toxicity in mouse assessed as change in spleen texture at 250 mg/kg/day administered as single dose via oral gavage by microscopic method; assay type: organism-based; conditions: in vivo
[2] = test system: Mus musculus; assay: Acute toxicity in mouse assessed as change in body weight at 25 to 250 mg/kg/day administered as single dose via oral gavage measured after 3 days; assay type: organism-based; conditions: in vivo, 72 h
[3] = test system: Mus musculus; assay: Acute toxicity in mouse assessed as change in liver texture at 250 mg/kg/day administered as single dose via oral gavage by microscopic method; assay type: organism-based; conditions: in vivo
[4] = test system: Mus musculus; assay: Acute toxicity in mouse assessed as change in kidney texture at 250 mg/kg/day administered as single dose via oral gavage by microscopic method; assay type: organism-based; conditions: in vivo
[5] = test system: Mus musculus; assay: Acute toxicity in mouse assessed as change in spleen texture at 100 mg/kg, ip by microscopic method; assay type: organism-based; conditions: in vivo
[6] = test system: Leishmania aethiopica; assay: Antileishmanial activity against promastigote stage of Leishmania aethiopica assessed as parasite growth inhibition after 24 hrs by Alamar blue assay; assay type: functional
[7] = test system: Mus musculus; assay: Acute toxicity in mouse assessed as mortality at 25 to 250 mg/kg/day administered as single dose via oral gavage measured after 3 days; assay type: organism-based; conditions: in vivo, 72 h
[8] = test system: Mus musculus; assay: Acute toxicity in mouse assessed as change in liver texture at 100 mg/kg, ip by microscopic method; assay type: organism-based; conditions: in vivo
[9] = test system: Mus musculus; assay: Acute toxicity in mouse assessed as mortality up to 100 mg/kg, ip after 7 days; assay type: organism-based; conditions: in vivo, 168 h
[10] = test system: Mus musculus; assay: Acute toxicity in mouse assessed as change in kidney texture at 100 mg/kg, ip by microscopic method; assay type: organism-based; conditions: in vivo
[11] = test system: Leishmania aethiopica; assay: Potency index, ratio of mitefosine IC50 to test compound IC50 for promastigote stage of Leishmania aethiopica; assay type: functional

NNC(=O)CNC(=O)c1ccccc1N
Activity [1]: Non-Toxic
Activity [2]: Non-Toxic
Activity [3]: Non-Toxic
Activity [4]: Non-Toxic
Activity [5]: Non-Toxic
IC50 [6]: 0.127 µM
Activity [7]: Non-Toxic
Activity [8]: Non-Toxic
Activity [9]: Non-Toxic
Activity [10]: Non-Toxic

CC(NC(=O)c1ccccc1N)C(=O)NN (centres undefined)
Activity [1]: Non-Toxic
Activity [2]: Non-Toxic
Activity [3]: Non-Toxic
Activity [4]: Non-Toxic
Activity [5]: Non-Toxic
IC50 [6]: 0.185 µM
Activity [7]: Non-Toxic
Activity [8]: Non-Toxic
Activity [9]: Non-Toxic
Activity [10]: Non-Toxic

COC(=O)C(Cc1ccccc1)NC(=O)c1ccccc1N (centres undefined)
IC50 [6]: 15.6 µM

O=C(CCN1C(=O)c2ccccc2NC1c1ccccc1)N/N=C/c1ccccc1 (centres undefined)
IC50 [6]: 12.6 µM

O=C(CCNC(=O)c1ccccc1/N=C/c1ccc(Cl)cc1)N/N=C/c1ccc(Cl)cc1
IC50 [6]: 4.34 µM

CC(C(=O)N/N=C/c1ccco1)N1C(=O)c2ccccc2NC1c1ccco1 (centres undefined)
IC50 [6]: 10.7 µM

NNC(=O)CCCCCNC(=O)c1ccccc1N
Activity [1]: Non-Toxic
Activity [2]: Non-Toxic
Activity [3]: Non-Toxic
Activity [4]: Non-Toxic
Activity [5]: Non-Toxic
IC50 [6]: 0.051 µM
Activity [7]: Non-Toxic
Activity [8]: Non-Toxic
Ratio IC50 [11]: 154
Activity [9]: Non-Toxic
Activity [10]: Non-Toxic

O=C(CCCN1C(=O)c2ccccc2NC1c1ccco1)N/N=C/c1ccco1 (centres undefined)
IC50 [6]: 10.4 µM

COC(=O)CCNC(=O)c1ccccc1N
IC50 [6]: 26.4 µM

O=C(N/N=C/c1ccc(Cl)cc1)C(Cc1ccccc1)N1C(=O)c2ccccc2NC1c1ccc(Cl)cc1 (centres undefined)
IC50 [6]: 10.1 µM

COC(=O)CCCNC(=O)c1ccccc1N
IC50 [6]: 17.3 µM

COc1ccc(/C=N/NC(=O)CN2C(=O)c3ccccc3NC2c2ccc(OC)cc2)cc1 (centres undefined)
IC50 [6]: 9.07 µM

COC(=O)CNC(=O)c1ccccc1N
IC50 [6]: 29.2 µM

O=C(CN1C(=O)c2ccccc2NC1c1ccc2c(c1)OCO2)N/N=C/c1ccc2c(c1)OCO2 (centres undefined)
IC50 [6]: 12 µM

COC(=O)CCCCCNC(=O)c1ccccc1N
IC50 [6]: 21.3 µM

NNC(=O)C(Cc1ccccc1)NC(=O)c1ccccc1N (centres undefined)
IC50 [6]: 2.9 µM

O=C(CNC(=O)c1ccccc1/N=C/c1ccc(Cl)cc1)N/N=C\c1ccc(Cl)cc1
Activity [1]: Non-Toxic
Activity [2]: Non-Toxic
Activity [3]: Non-Toxic
Activity [4]: Non-Toxic
Activity [5]: Non-Toxic
IC50 [6]: 0.052 µM
Activity [7]: Non-Toxic
Activity [8]: Non-Toxic
Activity [9]: Non-Toxic
Activity [10]: Non-Toxic

O=C(N/N=C/c1ccco1)C(Cc1ccccc1)N1C(=O)c2ccccc2NC1c1ccco1 (centres undefined)
IC50 [6]: 9.05 µM

O=C(CCCCCN1C(=O)c2ccccc2NC1c1ccco1)N/N=C/c1ccco1 (centres undefined)
IC50 [6]: 11.1 µM

O=C(CCCCCN1C(=O)c2ccccc2NC1c1ccc2c(c1)OCO2)N/N=C/c1ccc2c(c1)OCO2 (centres undefined)
IC50 [6]: 9.33 µM

COC(=O)C(C)NC(=O)c1ccccc1N (centres undefined)
IC50 [6]: 23 µM

C[C@@H]1[C@H](O)[C@@H](C)/C=C/C=C/C=C/C=C/C=C/C=C/C=C/[C@H](O[C@@H]2O[C@H](C)[C@@H](O)[C@H](N)[C@@H]2O)C[C@@H]2O[C@](O)(C[C@@H](O)C[C@@H](O)[C@H](O)CC[C@@H](O)C[C@@H](O)CC(=O)O[C@H]1C)C[C@H](O)[C@H]2C(=O)O.C[C@H](CCC(=O)O)[C@H]1CC[C@H]2[C@@H]3CC[C@@H]4C[C@H](O)CC[C@]4(C)[C@H]3C[C@H](O)[C@]12C
IC50 [6]: 0.035 µM
